± gives the uncertainty stated by the source.
Assay: xn = mol fraction of the nth substance listed
Conditions: 100 kPa

For `CC[n+]1ccn(C)c1.O=S(=O)([O-])O` + CC[C@H](C)[C@H](N)C(=O)O + O, the viscosity (293.15 K, x2 = 0, x1 = 0.0005421) was 1.046 ± 0.033 mPa·s, the viscosity (293.15 K, x2 = 0, x1 = 0.0009056) was 1.068 ± 0.033 mPa·s and the viscosity (293.15 K, x2 = 0, x1 = 0.001263) was 1.073 ± 0.032 mPa·s. It also gave a viscosity (293.15 K, x2 = 0.0004219, x1 = 0.0009052) of 1.093 ± 0.032 mPa·s, a viscosity (293.15 K, x2 = 0.0004673, x1 = 0.001263) of 1.101 ± 0.032 mPa·s and a viscosity (293.15 K, x2 = 0.0005036, x1 = 0.0005418) of 1.075 ± 0.033 mPa·s. The viscosity (293.15 K, x2 = 0.0007653, x1 = 0.0009049) was 1.113 ± 0.032 mPa·s, the viscosity (293.15 K, x2 = 0.0008312, x1 = 0.0005417) was 1.094 ± 0.033 mPa·s and the viscosity (293.15 K, x2 = 0.000832, x1 = 0.001262) was 1.122 ± 0.032 mPa·s. It also gave a viscosity (293.15 K, x2 = 0.0009488, x1 = 0.0005416) of 1.1 ± 0.033 mPa·s, a viscosity (293.15 K, x2 = 0.00107, x1 = 0.0009046) of 1.131 ± 0.033 mPa·s and a viscosity (293.15 K, x2 = 0.001216, x1 = 0.001262) of 1.145 ± 0.032 mPa·s. For the same molecule, the viscosity (293.15 K, x2 = 0.001364, x1 = 0.001262) was 1.154 ± 0.032 mPa·s, the viscosity (293.15 K, x2 = 0.001515, x1 = 0.0009042) was 1.157 ± 0.033 mPa·s and the viscosity (293.15 K, x2 = 0.001572, x1 = 0.0005413) was 1.136 ± 0.033 mPa·s. It also gave a viscosity (293.15 K, x2 = 0.001693, x1 = 0.0005412) of 1.143 ± 0.033 mPa·s, a viscosity (293.15 K, x2 = 0.001746, x1 = 0.001261) of 1.176 ± 0.033 mPa·s and a viscosity (293.15 K, x2 = 0.001796, x1 = 0.000904) of 1.174 ± 0.033 mPa·s. For the same molecule, the viscosity (293.15 K, x2 = 0.002205, x1 = 0.0009036) was 1.198 ± 0.06 mPa·s, the viscosity (293.15 K, x2 = 0.002228, x1 = 0.0005409) was 1.174 ± 0.033 mPa·s and the viscosity (293.15 K, x2 = 0.002256, x1 = 0.001261) was 1.206 ± 0.033 mPa·s. For the same molecule, the viscosity (293.15 K, x2 = 0.002728, x1 = 0.00126) was 1.23 ± 0.11 mPa·s, the viscosity (298.15 K, x2 = 0, x1 = 0.0005421) was 0.929 ± 0.032 mPa·s and the viscosity (298.15 K, x2 = 0, x1 = 0.0009056) was 0.949 ± 0.032 mPa·s. The viscosity (298.15 K, x2 = 0, x1 = 0.001263) was 0.966 ± 0.032 mPa·s, the viscosity (298.15 K, x2 = 0.0004219, x1 = 0.0009052) was 0.961 ± 0.032 mPa·s and the viscosity (298.15 K, x2 = 0.0004673, x1 = 0.001263) was 0.979 ± 0.032 mPa·s. For the same molecule, the viscosity (298.15 K, x2 = 0.0005036, x1 = 0.0005418) was 0.943 ± 0.032 mPa·s, the viscosity (298.15 K, x2 = 0.0007653, x1 = 0.0009049) was 0.97 ± 0.032 mPa·s and the viscosity (298.15 K, x2 = 0.0008312, x1 = 0.0005417) was 0.953 ± 0.032 mPa·s. It also gave a viscosity (298.15 K, x2 = 0.000832, x1 = 0.001262) of 0.989 ± 0.032 mPa·s, a viscosity (298.15 K, x2 = 0.0009488, x1 = 0.0005416) of 0.956 ± 0.032 mPa·s and a viscosity (298.15 K, x2 = 0.00107, x1 = 0.0009046) of 0.979 ± 0.032 mPa·s. It also gave a viscosity (298.15 K, x2 = 0.001216, x1 = 0.001262) of 0.999 ± 0.032 mPa·s, a viscosity (298.15 K, x2 = 0.001364, x1 = 0.001262) of 1.003 ± 0.032 mPa·s and a viscosity (298.15 K, x2 = 0.001515, x1 = 0.0009042) of 0.991 ± 0.032 mPa·s. For the same molecule, the viscosity (298.15 K, x2 = 0.001572, x1 = 0.0005413) was 0.973 ± 0.032 mPa·s, the viscosity (298.15 K, x2 = 0.001693, x1 = 0.0005412) was 0.977 ± 0.032 mPa·s and the viscosity (298.15 K, x2 = 0.001746, x1 = 0.001261) was 1.013 ± 0.032 mPa·s. For the same molecule, the viscosity (298.15 K, x2 = 0.001796, x1 = 0.000904) was 0.999 ± 0.032 mPa·s, the viscosity (298.15 K, x2 = 0.002205, x1 = 0.0009036) was 1.01 ± 0.049 mPa·s and the viscosity (298.15 K, x2 = 0.002228, x1 = 0.0005409) was 0.991 ± 0.033 mPa·s. It also gave a viscosity (298.15 K, x2 = 0.002256, x1 = 0.001261) of 1.027 ± 0.032 mPa·s, a viscosity (298.15 K, x2 = 0.002728, x1 = 0.00126) of 1.04 ± 0.087 mPa·s and a viscosity (303.15 K, x2 = 0, x1 = 0.0005421) of 0.824 ± 0.031 mPa·s. It also gave a viscosity (303.15 K, x2 = 0, x1 = 0.0009056) of 0.843 ± 0.031 mPa·s, a viscosity (303.15 K, x2 = 0, x1 = 0.001263) of 0.866 ± 0.032 mPa·s and a viscosity (303.15 K, x2 = 0.0004219, x1 = 0.0009052) of 0.853 ± 0.031 mPa·s. The viscosity (303.15 K, x2 = 0.0004673, x1 = 0.001263) was 0.878 ± 0.032 mPa·s, the viscosity (303.15 K, x2 = 0.0005036, x1 = 0.0005418) was 0.837 ± 0.031 mPa·s and the viscosity (303.15 K, x2 = 0.0007653, x1 = 0.0009049) was 0.862 ± 0.032 mPa·s. The viscosity (303.15 K, x2 = 0.0008312, x1 = 0.0005417) was 0.845 ± 0.031 mPa·s, the viscosity (303.15 K, x2 = 0.000832, x1 = 0.001262) was 0.887 ± 0.032 mPa·s and the viscosity (303.15 K, x2 = 0.0009488, x1 = 0.0005416) was 0.848 ± 0.031 mPa·s. The viscosity (303.15 K, x2 = 0.00107, x1 = 0.0009046) was 0.87 ± 0.032 mPa·s.
